In patent US20150038575A1, “MELANOGENESIS-INHIBITORY CONSTITUENTS OF Ligusticum sinense” (priority 2013, published 2015):

Assays:
tyrosinase = experiment: Assay of tyrosinase activity (L-tyrosine substrate, absorbance at 475 nm); format: biochemical; conditions: mushroom tyrosinase, pH 6.8, 37° C.
Procedure: The source of the tested tyrosinase was from mushroom, and the substrate of the tyrosinase was L-tyrosine. The experiment was performed by the method below. First, 40 μL of pH 6.8 phosphate buffer solution, 40 μL of various sample solution (samples in 0.07M pH6.8 phosphate buffer solution containing 0.1 vol % of DMSO), and 40 μL of tyrosinase (250 unit/mL, dissolved in pH 6.8 phosphate buffer solution at a concentration of 0.07 M) were sequentially and respectively added into 96-wells plate. The sample solutions above respectively contain the compounds II, III, and kojic acid. The group added with the sample solution containing kojic acid was used as positive control (PC). A group without adding the sample solution was used as control (C). The mixtures described above were thermostat at 37° C. for 10 minutes. Then, 80 μL of tyrosine solutions (0.4 mg/mL, dissolved in 0.07M pH6.8 phosphate buffer solution) were respectively added into each mixture and thermostat for another 20 minutes to perform reaction. The amount of the obtained product L-DOPA of each mixture was measured at 475 nm to get absorbance of each sample. Therefore, the tyrosinase activity was calculated by the formula below. Tyrosinase activity(%)=[(A−B)/(C−D)]×100 The symbol A above is the absorbance of groups containing a sample and tyrosinase. The symbol B above is the absorbance of groups containing a sample but not tyrosinase. The symbol C above is the absorbance of groups containing tyrosinase but not a sample.

[1] = system: B16-F10 murine melanoma cells; experiment: Viability test of B16-F10 murine melanoma cells (MTT assay); format: cell-based; conditions: 72 hours; for cell viability: FIG. 8A
Procedure: In this test, B16-F10 murine melanoma cells (BCRC No. 60031) were used.
First, the B16-F10 murine melanoma cells were cultured in Dulbecco's Modified Eagle's Medium (abbreviated as DMEM, which contains 90% (v/v) DMEM, 10% (v/v) fetal bovine serum), and additionally added 1% (v/v) Penicillin-Streptomycin Solution. Then, the cells in the mediums were incubated under 5% CO2/air at 37° C. in 70% of humidity. The medium was exchanged every two days. When the cells grew to a density of 80-90%, the cells were treated by trypsin to desorb the cells from the walls of containers Next, haemocytometer (Neubauer Improved., Marienfeld, Germany) was used to count the number of the cells. Proper amount of cells were then transplanted into cell culture plates to prepare for cell viability tests.
Cell viability rate was determined by MTT assay. MTT assay was performed by using […] in the mitochondria of living cells to reduce yellow 3-(4,5-dimethylthiazol-2-yl)-2,5-diphenyl tetrazolium bromide (MTT) to purple formazan product. Therefore, the amount of the purple formazan product is proportional to the number of the living cells and thus can be determined by spectrophotomter.
In a 12-wells cell plate, 1×10^3 cells were implanted into each well and stayed for 24 hours to let the cells attach to the wail of the well. Then, the compounds I, II, Ill and arbutin (positive control; PC) were respectively added into each wells and cultured for 72 hours. Next, MTT dye (Applichem Co., Denmark) dissolved in 0.5 mg/ml PBS solution was added to each well to react for 2 hours. The obtained purple formazan product was dissolved in 400 μL of DMSO, and then the absorbance of the purple DMSO solution was analyzed by microplate reader to get the absorbance at 570 nm. The cell viability rate was determined by the formula below.
Cell viability rate (%)=(Absorbance of test group/absorbance of blank group)×100%

[2] = system: B16-F10 murine melanoma cells; experiment: Analysis of melanin content in B16-F10 murine melanoma cells (α-MSH stimulated); format: cell-based; conditions: for melanin content in the melanoma cells: B16-F10 cells, 25, 50 and 100 μM, FIG. 8B; for melanin content in the melanoma cells / IC50: 100 nM α-MSH, 72 hours; for IC50: Mus musculus, B16-F10 cells, read-out: IC50 for inhibiting the melanogenesis; for inhibitory activity of melanogenesis: summary statement on the isolated compounds
Procedure: The melanin content in B16-F10 murine melanoma cells was analyzed by a modified Hosoi method disclosed in 1985 (Hosoi J, Abe E, Suda T, Kuroki T, Regulation of melanin synthesis of B16 mouse melanoma cells by 1 alpha, 25-dihydroxyvitamin D3 and retinoic acid. Cancer Res. 1985; 45(4):1474-8).
First, in a 12-wells cell plate, 1×10^3 cells were implanted into each well and stayed for 24 hours to let the cells attach to the wall of the well. Various concentrations (25, 50, and 100 μM) of the compounds I, II, III, and arbutin (positive control; PC) were respectively added into each wells, and 100 nM of α-melanocyte stimulating hormone (α-MSH) was subsequently adaded. The cells were cultured for 72 hours. After the treatment above, cells were washed by PBS, and then treated by trypsin to desorb the cells. 150 μL of 1N NaOH solution containing 10% DMSO was then added and heated in a 80° C. water bath for 1 hour. After cooling to room temperature, the samples were centrifuge at 5000 rpm for 10 minutes. The upper solution was transferred into a 96-wells plate and analyzed by a microplate reader at 405 nm. The absorbance at 405 nm for each sample was read to calculate the melanin content of each sample.

[3] = system: NHEKs in Leiden epidermal models (LEMs); experiment: Viability test of human epidermal skin equivalents (Leiden epidermal models, MTT); format: cell-based; conditions: 24 hours exposure
Procedure: In this test, fresh mamma reduction surplus skin of a single individual (D002, Fitzpatrick skin type I/II) was used for isolation of normal human epidermal keratinocytes (NHEKs).
Leiden epidermal models (LEMs) were generated by seeding NHEKs on an inert filter insert. The NHEKs in LEMS were incubated overnight under submerged conditions in keratinocyte medium. Within four days, fetal bovine serum was gradually omitted and the NHEKs in LEMs were cultured serum-free at the air-liquid interface for 7 days, while culture medium was refreshed twice a week.
Viability assays were performed by adding 0,5 mL of 1 mg/mL MTT to each of the NHEKs in LEMs for 3h, after 24 hours exposure to the test articles (compounds II, III, and DMSO (negative control)). The precipitated blue formazan product was extracted from the cells within 2 hours with 0.5 mL isopropanol per well. The concentration of formazan was measured by determining the OD at 570 nm using a Tecan Infinite F50 microplate reader.

[4] = concentration of 10-100 μM, FIG. 8C

Structure (SMILES)	inhibitory effect to the tyrosinase activity (tyrosinase)	cytotoxicity to the B16-F10 murine melanoma cells [1]	cell viability [1]	melanin content in the melanoma cells [2]	IC50 [2] [µM]	inhibitory activity of melanogenesis [2]	cytotoxicity to the NHEKs in the Leiden epidermal models [3]	cell viability ([3]; 10 μM) [%]	cell viability ([3]; 100 μM) [%]	cell viability [3, 4]	cell growth ([1]; at a concentration of 100 μM)	cell viability ([3]; 50 μM) [%]
CCCC[C@@H]1OC(=O)[C@H]2CCCC[C@@H]12 [compound I, 3-Butylhexahydrophthalide]	do not show obvious inhibitory effect	did not have cytotoxicity	did not affect the cell viability	can decrease the melanin content	100 ± 12.9	have inhibitory activity of melanogenesis	–	–	–	–	–	–
CCCC[C@@H]1OC(=O)C2=CCCC[C@H]21 [compound II, Neocnidilide]	do not show obvious inhibitory effect	did not have cytotoxicity	did not affect the cell viability	can decrease the melanin content	31.1 ± 6.8	have inhibitory activity of melanogenesis	did not have cytotoxicity	97	92	did not affect the cell viability	–	–
C=CC(c1ccc(O)c(OC)c1)c1cc(/C=C/C(=O)O)cc(OC)c1O (stereo not drawn) [compound III]	do not show obvious inhibitory effect	did not have cytotoxicity	–	can decrease the melanin content	78.9 ± 8.1	have inhibitory activity of melanogenesis	did not have cytotoxicity	98	106	did not affect the cell viability	slight tendency to inhibit cell growth	104
